The values below come from patent publication US11135252B2, “Probiotic therapies for developmental disorders and other neurological disorders” (Baylor College of Medicine, priority 2016, dated 2021).

Test [1] deals with Cntnap2-deficient mice. To be noted: mice lacking Cntnap2; oxytocin (Penagarikano et al., 2015; 2011); cited from earlier work.
Test [2] concerns Cntnap2-deficient mice. Nature of the test: Social behavior (sociability, social novelty) in Cntnap2-deficient mice. Format: in vivo. The protocol: (§1) Crawley's three-chamber test for sociability and preference for social novelty was performed as described (Silverman et al., 2010). In brief, the mouse first experienced a 10-minute period of habituation during which it was allowed to freely explore a 60×40×23 cm Plexiglass arena divided into three equally sized, interconnected chambers (Left, Center, Right). Sociability was measured during a second ten-minute period in which the subject could interact either with an empty wire cup (Empty) or a wire cup containing an age and sex-matched stranger conspecific (Mouse 1). Time spent interacting (sniffing, crawling upon) with either the empty cup or the stranger mouse contained in the other cup as well as time spent in each chamber was recorded using the AnyMaze software, by independent observers. Empty cup placement in the Left or Right chamber during the Sociability period was counterbalanced between trials. Finally, preference for social novelty was assayed by introducing a second stranger mouse (Mouse 2) into the previously the empty wire cup. Time spent in each chamber as well as time spent interacting with either Mouse 1 or Mouse 2 was recorded using the automated AnyMaze software by independent observers.
To examine whether treatment with L. reuteri could restore ASD-like behaviors in genetic models of ASD, we studied mice lacking contactin associated protein-like 2 (CNTNAP2). Mutations in CNTNAP2 have been associated with syndromic forms of ASD (Nascimento, et al., 2016; Yoo, et al., 2017; Zare, et al., 2017; el-Sobky, et al., 2004; Alarcon, et al., 2008; Sampath, et al., 2013; Chiocchetti, et al., 2015), thereby serving as a genetic model of autism in mice. Second, mice lacking Cntnap2 show ASD-like behaviors (Penagarikano, et al.).

Test [3] has as its system MRD offspring. Briefly: Three-chamber social test in MRD offspring. Format: in vivo, mice. The settings on record: in drinking water. As to the method:
Crawley's three-chamber test for sociability and preference for social novelty was performed as described (Silverman et al., 2010). In brief, the mouse first experienced a 10-minute period of habituation during which it was allowed to freely explore a 60×40×23 cm Plexiglass arena divided into three equally sized, interconnected chambers (Left, Center, Right). Sociability was measured during a second ten-minute period in which the subject could interact either with an empty wire cup (Empty) or a wire cup containing an age and sex-matched stranger conspecific (Mouse 1). Time spent interacting (sniffing, crawling upon) with either the empty cup or the stranger mouse contained in the other cup as well as time spent in each chamber was recorded using the AnyMaze software, by independent observers. Empty cup placement in the Left or Right chamber during the Sociability period was counterbalanced between trials. Finally, preference for social novelty was assayed by introducing a second stranger mouse (Mouse 2) into the previously the empty wire cup. Time spent in each chamber as well as time spent interacting with either Mouse 1 or Mouse 2 was recorded using the automated AnyMaze software by independent observers. Lactobacillus reuteri MM4-1A (ATCC-PTA-6475) and Lactobacillus johnsonii (ATCC 33200) were cultured anaerobically in MRS broth in a 90% N2, 5% CO2, 5% H2 environment. L. reuteri was heat-killed by keeping the bacteria at 80° C. for 20 minutes (Wang et al., 2010). Bacterial viability was assessed by plating and the efficacy of the heat-kill procedure was confirmed by the absence of colony growth following plating. Cultures were centrifuged, washed, and resuspended in anaerobic solution (PBS) and frozen at −80° C. until use. PBS, live or heat-killed L. reuteri were added to the drinking water, which was changed daily to minimize dosage variability. Whereas the experimental group received live bacteria, one control group received identically prepared cultures of heat-killed bacteria. A second group of control mice received water treated with PBS alone. […]

The test system of test [4] is GF mice. Nature of the test: Three-chamber social test in germ-free mice treated with L. reuteri. Format: in vivo. The protocol: C57Bl6/J mice were obtained from Jackson Laboratories (#000-664) and were kept on a 12 h light/dark cycle and had access to food and water ad libitum. Females were placed on either a regular diet (RD) consisting of 13.4% kcal from fat, 30% kcal from protein, and 57% kcal from carbohydrates (Lab Diets, #5001) or high fat diet (HFD) consisting of 60% kcal from fat, 20% kcal from protein, and […] kcal from carbohydrates (Research Diets, #D12492). Maternal weight was measured weekly. Maternal total and fat mass were measured using an mq7.5 Minispec NMR body composition analyzer. After eight weeks on diet, females were paired with C57B16/J adult males to produce subject offspring. Resulting offspring were weaned at three weeks of age and all placed on RD, regardless of maternal diet (MRD or MHFD). Germ-free mice (C57B16/J) were maintained in a flexible isolator fed with HEPA-filtered air and provided with irradiated food and water. Germ-free offspring were weaned at four weeks of age. All behavioral tests were performed on 7-12-week-old male mice.
as §1, with “observers. […]” for “observers. Empty cup placement in the Left or Right chamber during the Sociability period was counterbalanced between trials. Finally, preference for social novelty was assayed by introducing a second stranger mouse (Mouse 2) into the previously the empty wire cup.”, “observers. […]” for “observers.”

Where [5] appears, read: mice lacking Cntnap2, L. reuteri in drinking water.

Take `CC[C@H](C)[C@@H]1NC(=O)[C@H](Cc2ccc(O)cc2)NC(=O)[C@@H](N)CSSC[C@@H](C(=O)N2CCC[C@H]2C(=O)N[C@@H](CC(C)C)C(=O)NCC(N)=O)NC(=O)[C@H](CC(N)=O)NC(=O)[C@H](CCC(N)=O)NC1=O` [oxytocin]: the social behavioral abnormalities entry in test [1] is reported as “rescues the social behavioral abnormalities”.

Consider “Lactobacillus reuteri MM4-1A (ATCC-PTA-6475) [L. reuteri]”, for which the social behavior abnormalities result in test [2] (Cntnap2-deficient mice, L. reuteri treatment) is recorded as “reverses the social behavior abnormalities”. Moreover, in test [2] (setting [5]), the sociability entry was “reverses the deficient sociability” and the social novelty entry was “reverses”. In addition, in test [3], the “sociability (chamber containing a mouse, FIG. 16A)” value was “preferred the chamber containing a mouse”; the social behavior entry is given as “did not change the social behavior”; the “social novelty (chamber containing Mouse 2, FIG. 16B)” value is recorded as “preferred”. Further, in test [4] (L. reuteri in drinking water), the sociability result is given as “reverses the deficient sociability” and the social novelty entry is listed as “reverses”. In addition, in test [4] (L. reuteri treatment), the social behavior deficits result is recorded as “sufficient to restore the social behavior deficits”.
